Test results taken from article PMC12136037, “Type II kinase inhibitors that target Parkinson’s disease–associated LRRK2” (Science Advances, 2025).

Columns and labels:
Assay in all cases: DSF 100 kinase selectivity screen;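 also: compound tested at 20 µM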
Assay type in all cases: binding
[1] = target: T1, ~100 representative kinases (Homo sapiens, UniProt O14965); details: Protein STK6; DSF; average of three replicates
T1 construct: Recombinant protein kinase domains with a concentration of 2 μM
T1 sequence (O14965 1-403): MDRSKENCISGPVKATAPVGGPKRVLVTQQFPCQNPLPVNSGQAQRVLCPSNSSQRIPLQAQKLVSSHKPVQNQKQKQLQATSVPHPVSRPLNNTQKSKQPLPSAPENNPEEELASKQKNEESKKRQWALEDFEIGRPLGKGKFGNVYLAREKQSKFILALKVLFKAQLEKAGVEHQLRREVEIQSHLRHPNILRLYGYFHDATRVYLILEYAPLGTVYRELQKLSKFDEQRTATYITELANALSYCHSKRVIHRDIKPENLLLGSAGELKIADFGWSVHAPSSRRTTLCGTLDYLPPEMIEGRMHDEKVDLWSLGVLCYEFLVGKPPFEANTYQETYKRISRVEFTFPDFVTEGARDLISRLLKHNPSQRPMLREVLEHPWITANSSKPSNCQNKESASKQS
Outline: (§1)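 Each kinase domain, at 2 μM, is mixed with 20 μM test compound and SYPRO Orange in Hepes (20 mM, pH 7.5) with 500 mM NaCl. Temperature is then raised at 3°C/min and fluorescence-monitored unfolding yields the melting temperature change, ΔTm in degrees Celsius.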

[2] = target: T2, ~100 representative kinases (Homo sapiens, UniProt O94804); details: Protein STK10; DSF; average of three replicates
T2 construct: Recombinant protein kinase domains with a concentration of 2 μM
T2 sequence (O94804 whole entry, the tested form may be a part): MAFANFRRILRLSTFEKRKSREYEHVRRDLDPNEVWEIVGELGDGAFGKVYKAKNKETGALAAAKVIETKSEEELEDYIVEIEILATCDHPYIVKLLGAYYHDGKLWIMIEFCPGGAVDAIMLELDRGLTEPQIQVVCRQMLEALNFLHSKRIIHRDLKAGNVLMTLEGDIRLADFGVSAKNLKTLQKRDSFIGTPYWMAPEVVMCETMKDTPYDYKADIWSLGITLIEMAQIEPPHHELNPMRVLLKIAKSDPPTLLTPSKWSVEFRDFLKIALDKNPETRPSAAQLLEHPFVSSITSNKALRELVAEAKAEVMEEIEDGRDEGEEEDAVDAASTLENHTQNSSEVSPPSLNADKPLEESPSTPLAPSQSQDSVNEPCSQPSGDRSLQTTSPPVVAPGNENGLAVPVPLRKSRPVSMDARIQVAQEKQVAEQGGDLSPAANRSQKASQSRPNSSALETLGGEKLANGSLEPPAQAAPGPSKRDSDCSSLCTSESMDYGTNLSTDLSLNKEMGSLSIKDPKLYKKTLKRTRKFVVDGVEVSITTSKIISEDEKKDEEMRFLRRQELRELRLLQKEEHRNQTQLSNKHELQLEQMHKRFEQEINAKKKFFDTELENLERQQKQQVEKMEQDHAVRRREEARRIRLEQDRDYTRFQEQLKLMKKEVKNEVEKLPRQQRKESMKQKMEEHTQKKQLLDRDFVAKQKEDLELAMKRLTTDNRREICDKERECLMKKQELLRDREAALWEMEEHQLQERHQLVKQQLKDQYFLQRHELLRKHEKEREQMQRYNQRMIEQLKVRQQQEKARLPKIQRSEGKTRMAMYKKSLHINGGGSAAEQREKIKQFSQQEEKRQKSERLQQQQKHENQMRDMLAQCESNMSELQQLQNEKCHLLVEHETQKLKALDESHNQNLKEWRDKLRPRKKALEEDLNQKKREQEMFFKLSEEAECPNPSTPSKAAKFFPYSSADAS
Outline: as §1

[3] = target: T3, ~100 representative kinases (Homo sapiens, UniProt P27448); details: protein MARK3; average of three replicates
T3 construct: Recombinant protein kinase domains with a concentration of 2 μM
T3 sequence (P27448 whole entry, the tested form may be a part): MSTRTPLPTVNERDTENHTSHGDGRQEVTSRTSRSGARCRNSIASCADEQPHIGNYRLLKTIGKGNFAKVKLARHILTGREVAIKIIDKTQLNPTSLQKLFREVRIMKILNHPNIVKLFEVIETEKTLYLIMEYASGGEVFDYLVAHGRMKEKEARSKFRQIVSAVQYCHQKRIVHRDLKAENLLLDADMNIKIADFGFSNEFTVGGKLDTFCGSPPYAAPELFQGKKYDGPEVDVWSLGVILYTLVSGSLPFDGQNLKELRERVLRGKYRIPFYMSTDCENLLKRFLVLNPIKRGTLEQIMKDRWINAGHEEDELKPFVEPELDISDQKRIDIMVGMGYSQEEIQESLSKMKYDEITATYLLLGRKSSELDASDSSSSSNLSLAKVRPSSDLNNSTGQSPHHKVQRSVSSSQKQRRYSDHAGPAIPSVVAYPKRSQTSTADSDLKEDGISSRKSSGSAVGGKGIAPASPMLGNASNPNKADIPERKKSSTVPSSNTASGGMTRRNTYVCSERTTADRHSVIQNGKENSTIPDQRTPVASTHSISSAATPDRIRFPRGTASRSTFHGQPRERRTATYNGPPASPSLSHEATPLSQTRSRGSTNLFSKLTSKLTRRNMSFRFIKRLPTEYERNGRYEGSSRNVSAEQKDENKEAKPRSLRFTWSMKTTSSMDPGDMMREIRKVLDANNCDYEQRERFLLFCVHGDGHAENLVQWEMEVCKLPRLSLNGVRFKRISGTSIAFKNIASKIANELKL
Outline: as §1

[4] = target: T4, ~100 representative kinases (Homo sapiens, UniProt P34947); details: protein GPRK5; average of three replicates
T4 construct: Recombinant protein kinase domains with a concentration of 2 μM
T4 sequence (P34947 whole entry, the tested form may be a part): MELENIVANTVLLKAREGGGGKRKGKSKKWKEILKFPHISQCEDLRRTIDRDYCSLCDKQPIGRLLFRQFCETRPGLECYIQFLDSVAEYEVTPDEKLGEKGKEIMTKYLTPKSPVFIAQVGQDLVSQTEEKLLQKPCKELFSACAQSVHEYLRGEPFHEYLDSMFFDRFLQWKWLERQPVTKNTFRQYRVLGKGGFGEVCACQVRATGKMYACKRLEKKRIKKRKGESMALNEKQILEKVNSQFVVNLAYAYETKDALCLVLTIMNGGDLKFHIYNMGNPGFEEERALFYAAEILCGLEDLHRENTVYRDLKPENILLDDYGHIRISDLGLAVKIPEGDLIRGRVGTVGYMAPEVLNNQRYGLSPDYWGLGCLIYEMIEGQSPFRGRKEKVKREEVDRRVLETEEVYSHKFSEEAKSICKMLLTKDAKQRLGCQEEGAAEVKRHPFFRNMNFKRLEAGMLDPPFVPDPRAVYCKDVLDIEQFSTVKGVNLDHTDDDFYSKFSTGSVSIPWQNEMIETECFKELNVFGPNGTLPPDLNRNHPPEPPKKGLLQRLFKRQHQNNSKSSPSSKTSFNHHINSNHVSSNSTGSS
Outline: as §1

[5] = target: T5, ~100 representative kinases (Homo sapiens, UniProt P54753); details: Protein EPHB3A; average of three replicates
T5 construct: Recombinant protein kinase domains with a concentration of 2 μM
T5 sequence (P54753 34-998): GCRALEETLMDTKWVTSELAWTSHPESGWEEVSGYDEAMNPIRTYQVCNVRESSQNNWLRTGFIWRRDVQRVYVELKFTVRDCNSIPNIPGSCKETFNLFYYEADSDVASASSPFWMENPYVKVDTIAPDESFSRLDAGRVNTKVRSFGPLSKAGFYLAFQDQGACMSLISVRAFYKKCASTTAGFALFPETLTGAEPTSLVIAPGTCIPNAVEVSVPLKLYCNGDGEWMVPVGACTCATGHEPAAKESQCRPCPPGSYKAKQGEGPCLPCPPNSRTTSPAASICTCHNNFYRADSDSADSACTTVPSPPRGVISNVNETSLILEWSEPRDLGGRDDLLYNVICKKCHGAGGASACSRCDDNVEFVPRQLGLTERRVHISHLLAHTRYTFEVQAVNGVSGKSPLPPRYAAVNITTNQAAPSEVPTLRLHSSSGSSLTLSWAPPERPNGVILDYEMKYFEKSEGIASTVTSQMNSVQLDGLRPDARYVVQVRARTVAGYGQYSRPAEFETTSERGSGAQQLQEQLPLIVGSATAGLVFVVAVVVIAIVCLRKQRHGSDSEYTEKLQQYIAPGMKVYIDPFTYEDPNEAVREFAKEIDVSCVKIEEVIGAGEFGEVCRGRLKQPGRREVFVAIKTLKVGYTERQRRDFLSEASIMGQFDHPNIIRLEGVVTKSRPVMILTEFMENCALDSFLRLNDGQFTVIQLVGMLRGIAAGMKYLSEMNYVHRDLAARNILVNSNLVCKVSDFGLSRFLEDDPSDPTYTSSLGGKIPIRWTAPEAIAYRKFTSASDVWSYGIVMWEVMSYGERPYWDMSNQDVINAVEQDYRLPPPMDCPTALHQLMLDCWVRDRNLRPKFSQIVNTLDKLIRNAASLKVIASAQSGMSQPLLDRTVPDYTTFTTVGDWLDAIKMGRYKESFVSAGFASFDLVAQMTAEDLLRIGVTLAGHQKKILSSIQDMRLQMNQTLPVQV
Outline: as §1

[6] = target: T6, ~100 representative kinases (Homo sapiens, UniProt P54762); details: Protein EPHB1; average of three replicates
T6 construct: Recombinant protein kinase domains with a concentration of 2 μM
T6 sequence (P54762 18-984): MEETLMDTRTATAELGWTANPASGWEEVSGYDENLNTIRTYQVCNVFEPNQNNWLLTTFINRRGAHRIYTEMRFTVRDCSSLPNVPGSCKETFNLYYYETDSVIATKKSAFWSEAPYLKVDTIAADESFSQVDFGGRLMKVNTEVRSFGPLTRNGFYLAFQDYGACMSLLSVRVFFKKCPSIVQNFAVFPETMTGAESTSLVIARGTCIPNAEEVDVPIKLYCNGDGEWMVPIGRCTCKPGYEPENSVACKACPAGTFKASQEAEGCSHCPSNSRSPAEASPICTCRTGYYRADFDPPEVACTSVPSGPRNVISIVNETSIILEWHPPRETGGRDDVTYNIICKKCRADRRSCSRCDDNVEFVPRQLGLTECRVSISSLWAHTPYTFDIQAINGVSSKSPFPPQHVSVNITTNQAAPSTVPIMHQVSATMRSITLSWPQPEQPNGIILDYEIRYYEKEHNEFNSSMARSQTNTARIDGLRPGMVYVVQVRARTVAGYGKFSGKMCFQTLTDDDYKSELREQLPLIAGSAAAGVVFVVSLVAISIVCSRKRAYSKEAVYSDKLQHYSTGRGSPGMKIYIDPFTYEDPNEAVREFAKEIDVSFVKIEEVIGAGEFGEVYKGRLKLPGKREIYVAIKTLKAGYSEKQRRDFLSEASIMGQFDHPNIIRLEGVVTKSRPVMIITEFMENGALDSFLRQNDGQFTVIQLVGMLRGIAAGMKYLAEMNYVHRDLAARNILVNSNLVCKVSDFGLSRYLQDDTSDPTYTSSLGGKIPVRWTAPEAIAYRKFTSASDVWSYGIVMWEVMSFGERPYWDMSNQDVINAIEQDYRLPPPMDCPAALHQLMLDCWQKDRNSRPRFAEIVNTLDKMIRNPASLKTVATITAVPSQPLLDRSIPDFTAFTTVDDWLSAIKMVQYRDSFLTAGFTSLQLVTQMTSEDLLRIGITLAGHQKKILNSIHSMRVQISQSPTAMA
Outline: as §1

[7] = target: T7, ~100 representative kinases (Homo sapiens, UniProt Q5VT25); details: Protein CDC42BPA; average of three replicates
T7 construct: Recombinant protein kinase domains with a concentration of 2 μM
T7 sequence (Q5VT25 whole entry, the tested form may be a part): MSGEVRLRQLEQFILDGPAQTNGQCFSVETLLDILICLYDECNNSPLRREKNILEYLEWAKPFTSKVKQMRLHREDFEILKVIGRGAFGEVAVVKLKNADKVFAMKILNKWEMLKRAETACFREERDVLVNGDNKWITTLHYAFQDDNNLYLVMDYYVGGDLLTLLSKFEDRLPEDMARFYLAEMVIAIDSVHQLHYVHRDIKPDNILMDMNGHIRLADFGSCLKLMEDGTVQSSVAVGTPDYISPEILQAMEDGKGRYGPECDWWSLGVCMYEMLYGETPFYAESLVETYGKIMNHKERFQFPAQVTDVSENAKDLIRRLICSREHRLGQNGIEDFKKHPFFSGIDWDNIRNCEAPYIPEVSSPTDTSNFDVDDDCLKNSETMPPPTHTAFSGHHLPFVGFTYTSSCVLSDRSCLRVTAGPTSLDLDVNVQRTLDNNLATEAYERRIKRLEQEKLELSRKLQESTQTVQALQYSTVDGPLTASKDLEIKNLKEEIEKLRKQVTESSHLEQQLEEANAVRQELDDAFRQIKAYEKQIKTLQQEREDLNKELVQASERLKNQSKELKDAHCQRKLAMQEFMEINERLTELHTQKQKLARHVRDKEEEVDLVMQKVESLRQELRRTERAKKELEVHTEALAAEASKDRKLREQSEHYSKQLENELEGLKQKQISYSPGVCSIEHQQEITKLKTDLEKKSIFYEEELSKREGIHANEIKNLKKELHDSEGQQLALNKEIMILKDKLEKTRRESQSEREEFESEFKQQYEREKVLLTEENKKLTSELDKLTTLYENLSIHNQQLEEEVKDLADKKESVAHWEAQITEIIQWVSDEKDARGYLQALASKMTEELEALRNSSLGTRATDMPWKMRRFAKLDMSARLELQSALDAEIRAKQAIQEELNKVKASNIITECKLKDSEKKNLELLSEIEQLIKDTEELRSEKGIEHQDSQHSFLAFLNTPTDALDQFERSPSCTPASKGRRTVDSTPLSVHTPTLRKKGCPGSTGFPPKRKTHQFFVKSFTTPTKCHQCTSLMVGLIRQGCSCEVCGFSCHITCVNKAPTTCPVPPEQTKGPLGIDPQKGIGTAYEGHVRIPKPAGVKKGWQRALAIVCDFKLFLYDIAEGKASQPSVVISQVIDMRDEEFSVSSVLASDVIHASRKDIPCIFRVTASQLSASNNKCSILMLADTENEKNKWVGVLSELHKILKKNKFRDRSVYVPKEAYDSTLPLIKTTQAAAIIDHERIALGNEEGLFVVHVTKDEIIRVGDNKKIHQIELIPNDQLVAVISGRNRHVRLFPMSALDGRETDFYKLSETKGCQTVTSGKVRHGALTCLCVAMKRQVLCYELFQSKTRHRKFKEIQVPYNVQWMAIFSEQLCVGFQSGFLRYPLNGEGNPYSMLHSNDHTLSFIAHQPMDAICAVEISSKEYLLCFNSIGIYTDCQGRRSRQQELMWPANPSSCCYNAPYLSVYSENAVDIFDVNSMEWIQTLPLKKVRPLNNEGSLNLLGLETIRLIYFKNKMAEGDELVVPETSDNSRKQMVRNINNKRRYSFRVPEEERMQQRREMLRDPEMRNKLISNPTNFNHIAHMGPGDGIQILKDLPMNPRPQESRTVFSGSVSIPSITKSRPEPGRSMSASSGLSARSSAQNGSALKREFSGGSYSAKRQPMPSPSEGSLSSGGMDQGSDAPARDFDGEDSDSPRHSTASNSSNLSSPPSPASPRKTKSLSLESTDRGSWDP
Outline: as §1

Row | dTm [1] | dTm [2] | dTm [3] | dTm [4] | dTm [5] | dTm [6] | dTm [7] | SMILES
1 | 7.04 K | 11.44 K | 4.90 K | 0.90 K | 3.71 K | 3.63 K | -1.21 K | Cc1ccc(NC(=O)C2(C(=O)Nc3cccc(-c4c[nH]c5ncnc(N6CCOCC6)c45)c3)CC2)cc1 [Compound 14]
2 | 6.69 K | 11.03 K | 4.35 K | 0.0071 K | 0.34 K | 1.49 K | -0.90 K | Cc1cc(NC(=O)C2(C(=O)Nc3ccc(F)cc3)CC2)cc(-c2c[nH]c3ncnc(N4CCOCC4)c23)c1 [Compound 6]
3 | 4.77 K | 10.11 K | 3.05 K | 0.40 K | -2.17 K | -2.93 K | 0.59 K | O=C(Nc1cc(F)cc(Br)c1)C1(C(=O)Nc2cccc(-c3c[nH]c4ncnc(N5CCOCC5)c34)c2)CC1 [Compound 27]
4 | 5.48 K | 7.29 K | 2.45 K | 0.44 K | 0.59 K | 0.79 K | -1.10 K | COc1ccc(NC(=O)C2(C(=O)Nc3cccc(-c4c[nH]c5ncnc(N6CCOCC6)c45)c3)CC2)cc1 [Compound 16]
5 | 9.16 K | 14.64 K | 7.72 K | 1.38 K | 5.32 K | 5.42 K | -0.08 K | O=C(Nc1ccc(Cl)cc1)C1(C(=O)Nc2cccc(-c3c[nH]c4ncnc(N5CCOCC5)c34)c2)CC1 [Compound 13]
6 | 6.56 K | 8.23 K | 4.53 K | 0.16 K | 1.32 K | 1.63 K | -1.23 K | Cc1cc(F)ccc1NC(=O)C1(C(=O)Nc2cccc(-c3c[nH]c4ncnc(N5CCOCC5)c34)c2)CC1 [Compound 24]

Second part, the molecule before the results:

Row | SMILES | dTm [1] | dTm [2] | dTm [3] | dTm [4] | dTm [5] | dTm [6] | dTm [7]
7 | Cc1ccc(-n2nc(C(C)(C)C)cc2NC(=O)Nc2cccc(-c3c[nH]c4nc(Cl)nc(N5CCOCC5)c34)c2)cc1 [Compound 30] | 1.21 K | 13.38 K | -0.48 K | -3.24 K | 0.0373 K | -0.80 K | 0.77 K
8 | CCNc1nc(Nc2cc(F)c(C(=O)N3CCOCC3)cc2OC)ncc1C(F)(F)F [GNE-7915] | 3.65 K | -0.11 K | 0.65 K | 0.32 K | 0.08 K | 0.07 K | -0.72 K
9 | COc1cc2c(Oc3ccc(NC(=O)C4(C(=O)Nc5ccc(F)cc5)CC4)cc3F)ccnc2cc1OCCCN1CCOCC1 [Foretinib, reference compound] | – | 16.81 K | 3.96 K | 0.60 K | 13.52 K | 12.70 K | 0.32 K
10 | Cc1ccc(C(=O)Nc2ccc(CN3CCN(C)CC3)c(C(F)(F)F)c2)cc1C#Cc1cnc2cccnn12 [Ponatinib, reference compound] | 1.61 K | – | – | – | 13.49 K | – | -1.37 K
11 | Cc1ccc(C(=O)Nc2ccc(CN3CCN(C)CC3)c(C(F)(F)F)c2)cc1C#Cc1cnc2[nH]ncc2c1 [GZD-824, reference compound] | 3.67 K | – | 3.47 K | 0.29 K | 15.76 K | 14.98 K | -1.37 K
12 | CN[C@@H]1C[C@H]2O[C@@](C)([C@@H]1OC)n1c3ccccc3c3c4c(c5c6ccccc6n2c5c31)C(=O)NC4 [Staurosporine] | 20.49 K | 22.21 K | – | 7.02 K | 7.02 K | – | 3.20 K
